The results in this text go back to patent US11136325B2, “Pyrrolopyrimidine and pyrrolopyridine derivatives” (GALAPAGOS NV, priority 2017, dated 2021).

“Also recorded” adds a separate entry of the source.

Assay [1] has as its system CFA induced hypersensitivity in rat. Put plainly: CFA induced hypersensitivity in rat assessed using weight bearing method. It counts as in vivo. To be noted: 10 mg/kg, 24 hours post CFA, 1, 2 and 4 hours post treatment. The source says: Intraplantar injection of Complete Freunds adjuvant (CFA) causes an inflammatory reaction which induces hypersensitivity and oedema, and mimics some aspects of clinical inflammatory pain. These effects can be investigated using equipment to measure weight bearing and plethysmometer.
Naive rats distribute their body weight equally between the two hind paws. However, when the injected (left) hind paw is inflamed and/or painful, the weight is re-distributed so that less weight is put on the affected paw (decrease in weight bearing on injured paw). Weight bearing through each hind limb was measured using a rat incapacitance tester (Linton Instruments, UK).
Rats were placed in the incapacitance tester with the hind paws on separate sensors and the average force exerted by both hind limbs was recorded over 4 seconds.
Base line weight bearing and paw volume readings were taken and hypersensitivity was induced via injection of CFA (Baseline weight bearing and paw volume recordings were taken prior to induction of insult. Inflammatory hypersensitivity was induced by intraplantar injection of CFA (100 μL of 1 mg/mL solution) intraplantar to the rats left hind paw.
Animals (Male, Sprague Dawley Rats (Charles River, UK), 212-260 g) were ranked and randomised to treatment groups according to the weight bearing CFA window in a Latin square design. […]

Assay [2] concerns MIA induced hyperalgesia in the rat. Briefly: MIA induced hyperalgesia in the rat, in vivo chronic pain model (weight bearing). The settings on record: 10 mg/kg p.o. daily day 3 to day 16, vs vehicle. The source says:
Intra-articular administration of Monosodium Iodoacetate (MIA) in the ipsilateral knee of Sprague Dawley rats leads to development of a robust and long-lasting hyperalgesia and allodynia associated initially with an inflammatory response.
Naive rats distribute their body weight equally between the two hind paws. However, when the injected (left) hind knee is inflamed and/or painful, the weight is re-distributed so that less weight is put on the affected limb (decrease in weight bearing on injured limb). Weight bearing through each hind limb is measured using a rat incapacitance tester (Linton Instruments, UK).
Osteoarthritis (OA) in rats ((Sprague Dawley, male, groups of 10) was induced via injection of MIA solution (Sigma, 12512), 25 μL of 80 mg/mL, (2 mg) into the knee joint of the left hind leg. Weight bearing was assessed on Days 3, 5, 7, 9, 12 & 16, following injection of MIA, for development of chronic pain. At Day 3 weight bearing measurements were taken and animals were ranked and randomised to treatment groups according to their MIA window in a Latin square design. […]
Weight bearing (g) readings were taken for both right and left hind paws and the difference calculated. Data are expressed as % ratio ipsilateral/contralateral ((WB left/WB right)*100) (mean±s.e.m.)
Calculation: Ipsilateral reading/contralateral reading x 100. […]

Assay [3] concerns CDAHFD diet-induced NASH in C57/BL6 mice. Briefly: Diet-induced (CDAHFD) mouse model of non-alcoholic steatohepatitis (NASH). Type of assay: in vivo. To be noted: mouse liver. The source says:
This model uses a choline-deficient, L-amino acid-defined, high-fat diet (CDAHFD) consisting of 60 kcal % fat and 0.1% methionine to induce NASH.
C57/BL6 mice (Charles River) are divided into groups as set out below, the mice are 8 weeks (>20 grs) at the initiation of the induction phase.
• CDAHFD; Research Diets Inc., Ref. No. A06071302 • Control diet: normal diet (VRF 1, P), Special Diets Services
In order to induce a non-alcoholic steatohepatitis (NASH), animals will be fed with choline-deficient, L-amino acid-defined, high-fat diet (CDAHFD).
Mice were randomly assigned to a treatment group and treated according to schedule presented in the Table above until the evaluation phase.
Steady state PK sampling—Blood will be collected in K2-EDTA tubes to generate plasma. All blood samples will be processed for plasma by centrifugation (5,000 rpm for 10 minutes at 4° C.) within 30 minutes of collection. Plasma from each blood sample will be quickly frozen in liquid nitrogen and stored in a freezer maintained at −80° C. until analysis.
Final blood sample—Blood will be collected in tubes for serum preparation containing protease inhibitors. All blood samples will be processed by centrifugation (3,500 rpm for 15 minutes at 4° C.). Aliquots of obtained serum samples will be stored frozen at −80° C. until further analysis.
Tissue samples: The liver is harvested and portions of the left lateral lobe are stored for RNA gene expression analysis, TG assay, sectioned for OH proline measurement, and the rest placed in 10% formalin for histopathological evaluation. Histopathological evaluation includes sections stained with Sirius red to evaluate extent of fibrosis, and sections stained with F4/80 to assess macrophage accumulation.
A panel of 6 fibrosis genes (Col1A1, Timp1, Pai1, CTGF, TGFβ and Acta2), inflammation genes (TNFα, IL10 and CCL2) and 2 house keeping genes are used for gene expression analysis.

For the compound `Cc1c[nH]c2ncnc(N3CCC(NC(=O)c4cc(N)ncc4F)CC3)c12` [Compound 1, 2-amino-5-fluoro-N-[1-(5-methyl-7H-pyrrolo[2,3-d]pyrimidin-4-yl)-4-piperidyl]pyridine-4-carboxamide], in assay [1], the “hypersensitivity response (weight bearing)” value is reported as “significantly inhibited”. Besides, the “reversal of hypersensitivity (weight bearing)” value in assay [2] is “significant and marked reversal; also recorded: significant reversal when compared to vehicle at each time point”. In assay [3] (day 73, 15 mg/kg/BID), the F4/80 quantification result is reported as “significant effect”. Besides, the “Sirius red fibrosis quantification” value in assay [3] (day 73, 15 mg/kg/QD and 15 mg/kg/BID) is “significant effect”. Moreover, the “expression levels of Pai1 (fibrosis gene panel)” value in assay [3] (day 73, at least the highest doses tested (5 mg/kg/QD, 15 mg/kg/QD, 15 mg/kg/BID p.o.), vs CDAHFD diet+vehicle) is given as “significant effect”. The “expression levels of TGF (fibrosis gene panel)” value in assay [3] (day 73, at least the highest doses tested, vs CDAHFD diet+vehicle) is recorded as “significant effect”.
